Reference: US7262185B2, “Benzazepine derivative, process for producing the same, and use” (Takeda Chemical Industries Ltd., priority 2001, dated 2007)

Compound | melting point
CCCCOCCOc1ccc(-c2ccc3c(c2)C=C(C(=O)Nc2ccc(SCc4n[nH]c(=O)n4CCC)cc2)CCN3CC(C)C)cc1 [Compound 65, 7-[4-(2-butoxyethoxy)phenyl]-1-isobutyl-N-[4-[(4-propyl-1H-1,2,4-triazol-5-on-3-yl)methylthio]phenyl]-2,3-dihydro-1H-1-benzazepine-4-carboxamide] | 98 to 101 °C
CCCCOCCOc1ccc(-c2ccc3c(c2)C=C(C(=O)Nc2ccc([C@H](O)c4ccccn4)cc2)CCN3S(C)(=O)=O)cc1 [Compound 93, 7-[4-(2-butoxyethoxy)phenyl]-N-[4-[(S)-hydroxy(2-pyridyl)methyl]phenyl]-1-methanesulfonyl-2,3-dihydro-1H-1-benzazepine-4-carboxamide] | 158 to 160 °C
CCCCOCCOc1ccc(-c2ccc3c(c2)C=C(C(=O)Nc2ccc([C@H](O)c4cccc[n+]4[O-])cc2)CCN3C(=O)C(F)(F)F)cc1 [Compound 80, 7-[4-(2-butoxyethoxy)phenyl]-N-[4-[(S)-hydroxy(1-oxidopyridin-2-yl)methyl]phenyl]-2,3-dihydro-1-trifluoroacetyl-1H-1-benzazepine-4-carboxamide] | 107 to 110 °C
CCCCOCCOc1ccc(-c2ccc3c(c2)C=C(C(=O)Nc2ccc(SCc4cncn4CC(N)=O)cc2)CCN3CC(C)C)cc1 [Compound 429, N-[4-[[[1-(2-amino-2-oxoethyl)-1H-imidazol-5-yl]methyl]thio]phenyl]-7-[4-(2-butoxyethoxy)phenyl]-1-isobutyl-2,3-dihydro-1H-1-benzazepine-4-carboxamide] | 152 to 154 °C
CCCCOCCOc1ccc(-c2ccc3c(c2)C=C(C(=O)Nc2ccc(C(O)c4cc(C)cc[n+]4[O-])c(OCC)c2)CCN3)cc1 (centres unmarked) [Compound 11, 7-[4-(2-butoxyethoxy)phenyl]-N-[3-ethoxy-4-[hydroxy(4-methyl-1-oxidopyridin-2-yl)methyl]phenyl]-2,3-dihydro-1H-1-benzazepine-4-carboxamide] | 110 to 115 °C
CCCCOCCOc1ccc(-c2ccc3c(c2)C=C(C(=O)Nc2ccc(C(O)c4cccc[n+]4[O-])c(Cl)c2)CCN3CC(C)C)cc1 (centres unmarked) [Compound 6, 7-[4-(2-butoxyethoxy)phenyl]-N-[3-chloro-4-[hydroxy(1-oxidopyridin-2-yl)methyl]phenyl]-1-isobutyl-2,3-dihydro-1H-1-benzazepine-4-carboxamide] | 105 to 107 °C
CCCCOCCOc1ccc(-c2ccc3c(c2)C=C(C(=O)Nc2ccc(C(O)c4cccc(C)[n+]4[O-])cc2)CCN3C(=O)C(F)(F)F)cc1 (centres unmarked) [Compound 96, 7-[4-(2-butoxyethoxy)phenyl]-N-[4-[hydroxy(6-methyl-1-oxidopyridin-2-yl)methyl]phenyl]-1-trifluoroacetyl-2,3-dihydro-1H-1-benzazepine-4-carboxamide] | 170 to 173 °C
CCCCOCCOc1ccc(-c2ccc3c(c2)C=C(C(=O)Nc2ccc(OCc4nccn4CCC)cc2)CCN3CC(C)C)cc1 [Compound 25, 7-[4-(2-butoxyethoxy)phenyl]-1-isobutyl-N-[4-[(1-propylimidazole-2-yl)methoxy]phenyl]-2,3-dihydro-1H-1-benzazepine-4-carboxamide] | 118 to 120 °C
CCCCOCCOc1ccc(-c2ccc3c(c2)C=C(C(=O)Nc2ccc([S+]([O-])Cc4nncn4CCCC)cc2)CCN3CCC)cc1 (centres unmarked) [Compound 145, 7-[4-(2-butoxyethoxy)phenyl]-N-[4-(4-n-butyl-4H-1,2,4-triazol-3-ylmethylsulfinyl)phenyl]-1-propyl-2,3-dihydro-1H-benzazepine-4-carboxamide] | 157 to 160 °C
CCCCOCCOc1ccc(-c2ccc3c(c2)C=C(C(=O)Nc2ccc(S(=O)(=O)Cc4cncn4CC(N)=O)cc2)CCN3CC(C)C)cc1 [Compound 431, N-[4-[[[1-(2-amino-2-oxoethyl)-1H-imidazol-5-yl]methyl]sulfonyl]phenyl]-7-[4-(2-butoxyethoxy)phenyl]-1-isobutyl-2,3-dihydro-1H-1-benzazepine-4-carboxamide] | 229 to 231 °C
CCCCOCCOc1ccc(-c2ccc3c(c2)C=C(C(=O)Nc2ccc([S+]([O-])Cc4nccn4CCCC(=O)OCC)cc2)CCN3CC(C)C)cc1 (centres unmarked) [Compound 414, ethyl 4-[2-[[[4-[[[7-[4-(2-butoxyethoxy)phenyl]-1-isobutyl-2,3-dihydro-1H-1-benzazepine-4-yl]carbonyl]amino]phenyl]sulfinyl]methyl]-1H-imidazol-1-yl]butanoate] | 134 to 136 °C
CCCCOCCOc1ccc(-c2ccc3c(c2)C=C(C(=O)Nc2ccc(N(C)Cc4nncn4CCC)cc2)CCN3CC(C)C)cc1 [Compound 150, 7-[4-(2-butoxyethoxy)phenyl]-1-isobutyl-N-[4-[methyl(4-propyl-4H-1,2,4-triazol-3-ylmethyl)amino]phenyl]-2,3-dihydro-1H-benzazepine-4-carboxamide] | 134 to 136 °C
CCCCOCCOc1ccc(-c2ccc3c(c2)C=C(C(=O)Nc2ccc(C(O)c4cc(C)cc[n+]4[O-])c(C(F)(F)F)c2)CCN3)cc1 (centres unmarked) [Compound 16, 7-[4-(2-butoxyethoxy)phenyl]-N-[4-[hydroxy(4-methyl-1-oxidopyridin-2-yl)methyl]-3-trifluoromethylphenyl]-2,3-dihydro-1H-1-benzazepine-4-carboxamide] | 124 to 128 °C
CCCCOCCOc1ccc(-c2ccc3c(c2)C=C(C(=O)Nc2ccc([S+]([O-])Cc4nncn4CCC)nc2)CCN3CC(C)C)cc1 (centres unmarked) [Compound 54, 7-[4-(2-butoxyethoxy)phenyl]-1-isobutyl-N-[2-(4-propyl-4H-1,2,4-triazol-3-yl)methylsulfinylpyridin-5-yl]-2,3-dihydro-1H-1-benzazepine-4-carboxamide] | 135 to 138 °C
CCCCOCCOc1ccc(-c2ccc3c(c2)C=C(C(=O)Nc2ccc(CC(=O)c4nccn4CCC)cc2)CCN3CC(C)C)cc1 [Compound 451, 7-[4-(2-butoxyethoxy)phenyl]-1-isobutyl-N-[4-(2-oxo-2-(1-propylimidazol-2-yl)ethyl)phenyl]-2,3-dihydro-1H-1-benzazepine-4-carboxamide] | 136.5 to 138 °C
CCCCOCCOc1ccc(-c2ccc3c(c2)C=C(C(=O)Nc2ccc([S+]([O-])Cc4c(C)nc5ccccn45)cc2)CCN3CCC)cc1 (centres unmarked) [Compound 165, 7-[4-(2-butoxyethoxy)phenyl]-N-[4-(2-methylimidazo[1,2-a]pyridin-3-ylmethylsulfinyl)phenyl]-1-propyl-2,3-dihydro-1H-benzazepine-4-carboxamide] | 134 to 137 °C
CCCCOCCOc1ccc(-c2ccc3c(c2)C=C(C(=O)Nc2ccc(C(O)c4cccc[n+]4[O-])c(C)c2)CCN3)cc1 (centres unmarked) [Compound 7, 7-[4-(2-butoxyethoxy)phenyl]-N-[4-[hydroxy(1-oxidopyridin-2-yl)methyl]-3-methylphenyl]-2,3-dihydro-1H-1-benzazepine-4-carboxamide] | 179 to 182 °C (dec.)
CCCCOCCOc1ccc(-c2ccc3c(c2)C=C(C(=O)Nc2ccc([S+]([O-])CCn4cnnc4)cc2)CCN3CC(C)C)cc1 (centres unmarked) [Compound 155, 7-[4-(2-butoxyethoxy)phenyl]-N-[4-(4H-1,2,4-triazol-4-ylethylsulfinyl)phenyl]-1-isobutyl-2,3-dihydro-1H-benzazepine-4-carboxamide] | 168 to 170 °C
CCCCOCCOc1ccc(-c2ccc3c(c2)C=C(C(=O)Nc2ccc([S+]([O-])Cc4ncnn4C)cc2)CCN3CC(C)C)cc1 (centres unmarked) [Compound 124, 7-[4-(2-butoxyethoxy)phenyl]-N-[4-(1-methyl-1H-1,2,4-triazol-5-ylmethylsulfinyl)phenyl]-1-isobutyl-2,3-dihydro-1H-1-benzazepine-4-carboxamide] | 135 to 138 °C
CCCCOCCOc1ccc(-c2ccc3c(c2)C=C(C(=O)Nc2ccc(CCCn4cnnc4)cc2)CCN3CCC)cc1 [Compound 64, 7-[4-(2-butoxyethoxy)phenyl]-1-propyl-N-[4-[3-(4H-1,2,4-triazol-4-yl)propyl]phenyl]-2,3-dihydro-1H-1-benzazepine-4-carboxamide] | 191 to 194 °C
CCCCOCCOc1ccc(-c2ccc3c(c2)C=C(C(=O)Nc2ccc(CSc4nnc(C)o4)cc2)CCN3CC(C)C)cc1 [Compound 116, 7-[4-(2-butoxyethoxy)phenyl]-N-[4-(5-methyl-1,3,4-oxadiazol-2-ylthiomethyl)phenyl]-1-isobutyl-2,3-dihydro-1H-1-benzazepine-4-carboxamide] | 107 to 109 °C
CCCCOCCOc1ccc(-c2ccc3c(c2)C=C(C(=O)Nc2ccc(C(O)c4cc(C)cc[n+]4[O-])c(OC)c2)CCN3CC(C)C)cc1 (centres unmarked) [Compound 10, 7-[4-(2-butoxyethoxy)phenyl]-N-[4-[hydroxy(4-methyl-1-oxidopyridin-2-yl)methyl]-3-methoxyphenyl]-1-isobutyl-2,3-dihydro-1H-1-benzazepine-4-carboxamide] | 174 to 176 °C
CCCCOCCOc1ccc(-c2ccc3c(c2)C=C(C(=O)Nc2ccc(C(O)c4cc(C)cc[n+]4[O-])c(C(F)(F)F)c2)CCN3CCC)cc1 (centres unmarked) [Compound 17, 7-[4-(2-butoxyethoxy)phenyl]-N-[4-[hydroxy(4-methyl-1-oxidopyridin-2-yl)methyl]-3-trifluoromethylphenyl]-1-propyl-2,3-dihydro-1H-1-benzazepine-4-carboxamide] | 103 to 105 °C
CCCCOCCOc1ccc(-c2ccc3c(c2)C=C(C(=O)Nc2ccc(CSc4nncs4)cc2)CCN3CC(C)C)cc1 [Compound 115, 7-[4-(2-butoxyethoxy)phenyl]-N-[4-(1,3,4-thiadiazol-2-ylthiomethyl)phenyl]-1-isobutyl-2,3-dihydro-1H-1-benzazepine-4-carboxamide] | 77 to 79 °C
CCCCOCCOc1ccc(-c2ccc3c(c2)C=C(C(=O)Nc2ccc([C@H](O)c4cccc[n+]4[O-])cc2)CCN3CCC)cc1 [Compound 83, 7-[4-(2-butoxyethoxy)phenyl]-N-[4-[(S)-hydroxy(1-oxidopyridin-2-yl)methyl]phenyl]-1-propyl-2,3-dihydro-1H-1-benzazepine-4-carboxamide] | 87 to 89 °C
CCCCOCCOc1ccc(-c2ccc3c(c2)C=C(C(=O)Nc2ccc(N(C)Cc4nncn4CCC)cc2)CCN3CCC)cc1 [Compound 151, 7-[4-(2-butoxyethoxy)phenyl]-N-[4-[methyl(4-propyl-4H-1,2,4-triazol-3-ylmethyl)amino]phenyl]-1-propyl-2,3-dihydro-1H-benzazepine-4-carboxamide] | 131 to 133 °C
